The test system of one data set is muscarinic receptors. In kind it is binding, rabbit (New Zealand White). The settings on record: at a concentration of 1.0 × 10^-5 M; rabbit lung homogenate, 0.1 nM [3H]QNB, 37° C., 60 min.
In data set [1] the test system is gastrointestinal tract, biliary tract, ureter and uterus. The settings on record: cited from earlier work.

Counter-ions that a name gives are not always drawn.

As to `CCN(CC)CCSC(=O)c1ccc(C(C)(C)C)cc1` [4-t-butyl-benzoyl-thio-S-(2-diethylaminoethyl)-ester.HCl], the “% inhibition of 3H[QNB] binding” value in the data set on muscarinic receptors stood at 21%. `CCN(CC)CCSC(=O)C(c1ccccc1)c1ccccc1` [Thiphenamil hydrochloride]: in data set [1] (in vivo), the “decrease spasm of the gastrointestinal tract, biliary tract, ureter and uterus” value is “decrease spasm of the gastrointestinal tract, biliary tract, ureter and uterus”. Further, the atropinic side effects result in data set [1] (salivary and sweat glands, GI glands, the eye or the cardiovascular system) is “without producing characteristic atropinic side effects”.

(Values after patent US4652649A, “Anti-spasmodic agents having a ring in the main chain” (United Pharmaceuticals, Inc., priority 1985, dated 1987).)
